Experimental data from PubChem BioAssay AID1259407 (Chemical Carcinogenesis Research Information System (CCRIS), 2018).
“Also recorded” adds a separate entry of the source. The source made the active and inactive calls. The rule behind the calls is not given here.

Test system: CCRIS mutagenicity, Ames/micronucleus/aberration tests
Experiment: CCRIS mutagenicity studies
[1] = Test System: AMES SALMONELLA TYPHIMURIUM, Strain/Indicator: TA98(NR), Metabolic Activation: NONE, Method: PREINCUBATION
[2] = Test System: AMES SALMONELLA TYPHIMURIUM, Strain/Indicator: TA98, Metabolic Activation: NONE, Method: PREINCUBATION
[3] = Test System: AMES SALMONELLA TYPHIMURIUM, Strain/Indicator: TA100, Metabolic Activation: NONE, Method: STANDARD PLATE
[4] = Test System: AMES SALMONELLA TYPHIMURIUM, Strain/Indicator: TA98, Metabolic Activation: NONE, Method: STANDARD PLATE

Measured: mutagenic call

Nc1cccc([N+](=O)[O-])c1N
active: [1] active; positive | Test System: AMES SALMONELLA TYPHIMURIUM, Strain/Indicator: TA98(NR), Metabolic Activation: RAT, LIVER, S-9, AROCLOR 1254, Method: PREINCUBATION active; positive | [2] active; positive | Test System: AMES SALMONELLA TYPHIMURIUM, Strain/Indicator: TA100(NR), Metabolic Activation: NONE, Method: PREINCUBATION active; positive | Test System: AMES SALMONELLA TYPHIMURIUM, Strain/Indicator: TA100(NR), Metabolic Activation: RAT, LIVER, S-9, AROCLOR 1254, Method: PREINCUBATION active; positive | Test System: AMES SALMONELLA TYPHIMURIUM, Strain/Indicator: TA100, Metabolic Activation: NONE, Method: PREINCUBATION active; positive | [3] active; positive | Test System: AMES SALMONELLA TYPHIMURIUM, Strain/Indicator: TA104, Metabolic Activation: NONE, Method: STANDARD PLATE active; positive | Test System: AMES SALMONELLA TYPHIMURIUM, Strain/Indicator: TA4006, Metabolic Activation: NONE, Method: STANDARD PLATE active; positive | Test System: AMES SALMONELLA TYPHIMURIUM, Strain/Indicator: TA7001, Metabolic Activation: NONE, Method: STANDARD PLATE active; positive | Test System: AMES SALMONELLA TYPHIMURIUM, Strain/Indicator: TA7002, Metabolic Activation: NONE, Method: STANDARD PLATE active; positive | Test System: AMES SALMONELLA TYPHIMURIUM, Strain/Indicator: TA7003, Metabolic Activation: NONE, Method: STANDARD PLATE active; positive | Test System: AMES SALMONELLA TYPHIMURIUM, Strain/Indicator: TA7004, Metabolic Activation: NONE, Method: STANDARD PLATE active; positive | Test System: AMES SALMONELLA TYPHIMURIUM, Strain/Indicator: TA7005, Metabolic Activation: NONE, Method: STANDARD PLATE active; positive | Test System: CHINESE HAMSTER OVARY, Strain/Indicator: CHO-K1-BH4 (HGPRT), Metabolic Activation: NONE, Method: SUSPENSION/PLATE active; positive
inactive: Test System: AMES SALMONELLA TYPHIMURIUM, Strain/Indicator: TA4001, Metabolic Activation: NONE, Method: STANDARD PLATE inactive; negative | Test System: AMES SALMONELLA TYPHIMURIUM, Strain/Indicator: TA7001, Metabolic Activation: RAT LIVER S-9, AROCLOR 1254, Method: STANDARD PLATE inactive; negative | Test System: AMES SALMONELLA TYPHIMURIUM, Strain/Indicator: TA7003, Metabolic Activation: RAT LIVER S-9, AROCLOR 1254, Method: STANDARD PLATE inactive; negative | Test System: AMES SALMONELLA TYPHIMURIUM, Strain/Indicator: TA7004, Metabolic Activation: RAT LIVER S-9, AROCLOR 1254, Method: STANDARD PLATE inactive; negative | Test System: AMES SALMONELLA TYPHIMURIUM, Strain/Indicator: TA7006, Metabolic Activation: NONE, Method: STANDARD PLATE inactive; negative

O=[N+]([O-])c1ccc2nc3cc([N+](=O)[O-])ccc3nc2c1
active: [1] active; positive | [2] active; positive

c12c3c4c5c1c1c6c7c2c2c8c3c3c9c4c4c%10c5c5c1c1c6c6c%11c7c2c2c7c8c3c3c8c9c4c4c9c%10c5c5c1c1c6c6c%11c2c2c7c3c3c8c4c4c9c5c1c1c6c2c3c41
inactive: End Point: In vitro chromosomal aberrations, Test System: Chinese hamster lung (CHL/IU) cells, Metabolic Activation: None inactive; negative | End Point: In vitro chromosomal aberrations, Test System: Chinese hamster lung (CHL/IU) cells, Metabolic Activation: S-9 inactive; negative | End Point: In vitro micronucleus, Test System: Human embryonic kidney 293 (HEK293) cells, Metabolic Activation: None inactive; negative; actual chemical tested was hydroxyl fullerene c-60 | End Point: In vitro micronucleus, Test System: Human epidermoid-like carcinoma (Hela) cells, Metabolic Activation: None inactive; negative; actual chemical tested was hydroxyl fullerene c-60 | Test System: Ames Salmonella typhimurium, Strain/Indicator: TA98, Metabolic Activation: None, Method: Preincubation inactive; negative | Test System: Ames Salmonella typhimurium, Strain/Indicator: TA98, Metabolic Activation: S-9, Method: Preincubation inactive; negative | Test System: Ames Salmonella typhimurium, Strain/Indicator: TA100, Metabolic Activation: None, Method: Preincubation inactive; negative | Test System: Ames Salmonella typhimurium, Strain/Indicator: TA100, Metabolic Activation: S-9, Method: Preincubation inactive; negative | Test System: Ames Salmonella typhimurium, Strain/Indicator: TA1535, Metabolic Activation: None, Method: Preincubation inactive; negative | Test System: Ames Salmonella typhimurium, Strain/Indicator: TA1535, Metabolic Activation: S-9, Method: Preincubation inactive; negative | Test System: Ames Salmonella typhimurium, Strain/Indicator: TA1537, Metabolic Activation: None, Method: Preincubation inactive; negative | Test System: Ames Salmonella typhimurium, Strain/Indicator: TA1537, Metabolic Activation: S-9, Method: Preincubation inactive; negative | Test System: E. coli, Strain/Indicator: WP2 uvrA/pKM101, Metabolic Activation: None, Method: Preincubation inactive; negative | Test System: E. coli, Strain/Indicator: WP2 uvrA/pKM101, Metabolic Activation: S-9, Method: Preincubation inactive; negative
active: End Point: In vitro micronucleus, Test System: Chinese hamster ovary (CHO) cells, Metabolic Activation: None active; positive (material tested was fullerol, c60(oh)24); also recorded: active; positive; actual chemical tested was hydroxyl fullerene c-60 | End Point: In vitro micronucleus, Test System: Human Hela cells, Metabolic Activation: None active; positive (material tested was fullerol, c60(oh)24) | End Point: In vitro micronucleus, Test System: Human embryonic kidney cells (HEK 293), Metabolic Activation: None active; positive (material tested was fullerol, c60(oh)24) | Test System: Gpt delta transgenic mouse primary embryo fibroblasts (MEF), Strain/Indicator: Red/gam gene mutants, Metabolic Activation: None, Method: Spi- mutation assay active; positive

CCN(Cc1cccc(S(=O)(=O)O)c1)c1ccc(C(=C2C=CC(=[N+](CC)Cc3cccc(S(=O)(=O)O)c3)C=C2)c2ccc(O)cc2S(=O)(=O)[O-])cc1
inactive: End Point: IN VIVO MICRONUCLEUS, Test System: BONE MARROW POLYCHROMATIC ERYTHROCYTES, Species: MOUSE, Strain/Sex: DDY/MALE, Route: IP inactive; negative | Test System: Mouse lymphoma, Strain/Indicator: L5178Y (tk+/tk-), Metabolic Activation: None, Method: Suspension/plate inactive; negative | Test System: Mouse lymphoma, Strain/Indicator: L5178Y (tk+/tk-), Metabolic Activation: Rat, Liver, S-9, Aroclor 1254, Method: Suspension/plate inactive; negative

CNC(=O)c1c(N(C)N=O)ncn1C
inactive: [4] inactive; negative | Test System: AMES SALMONELLA TYPHIMURIUM, Strain/Indicator: TA98, Metabolic Activation: S-9, Method: PREINCUBATION inactive; negative | Test System: AMES SALMONELLA TYPHIMURIUM, Strain/Indicator: TA98, Metabolic Activation: S-9, Method: STANDARD PLATE inactive; negative | [3] inactive; negative | Test System: AMES SALMONELLA TYPHIMURIUM, Strain/Indicator: TA100, Metabolic Activation: S-9, Method: PREINCUBATION inactive; negative | Test System: AMES SALMONELLA TYPHIMURIUM, Strain/Indicator: TA100, Metabolic Activation: S-9, Method: STANDARD PLATE inactive; negative | Test System: AMES SALMONELLA TYPHIMURIUM, Strain/Indicator: TA102, Metabolic Activation: NONE, Method: STANDARD PLATE inactive; negative | Test System: AMES SALMONELLA TYPHIMURIUM, Strain/Indicator: TA102, Metabolic Activation: S-9, Method: PREINCUBATION inactive; negative | Test System: AMES SALMONELLA TYPHIMURIUM, Strain/Indicator: TA102, Metabolic Activation: S-9, Method: STANDARD PLATE inactive; negative | Test System: AMES SALMONELLA TYPHIMURIUM, Strain/Indicator: TA1535, Metabolic Activation: NONE, Method: STANDARD PLATE inactive; negative | Test System: AMES SALMONELLA TYPHIMURIUM, Strain/Indicator: TA1535, Metabolic Activation: S-9, Method: PREINCUBATION inactive; negative | Test System: AMES SALMONELLA TYPHIMURIUM, Strain/Indicator: TA1535, Metabolic Activation: S-9, Method: STANDARD PLATE inactive; negative | Test System: AMES SALMONELLA TYPHIMURIUM, Strain/Indicator: TA1537, Metabolic Activation: NONE, Method: STANDARD PLATE inactive; negative | Test System: AMES SALMONELLA TYPHIMURIUM, Strain/Indicator: TA1537, Metabolic Activation: S-9, Method: PREINCUBATION inactive; negative | Test System: AMES SALMONELLA TYPHIMURIUM, Strain/Indicator: TA1537, Metabolic Activation: S-9, Method: STANDARD PLATE inactive; negative

O=Cc1ccc(COS(=O)(=O)O)o1
inactive: [4] inactive; negative
active: [3] active; positive | Test System: AMES SALMONELLA TYPHIMURIUM, Strain/Indicator: TA104, Metabolic Activation: NONE, Method: PREINCUBATION active; positive
